The experiment addresses T1, human mAChR M4 (Homo sapiens, UniProt P08173).
T1 construct: expressed in transfected cells
T1 sequence (P08173 1-479): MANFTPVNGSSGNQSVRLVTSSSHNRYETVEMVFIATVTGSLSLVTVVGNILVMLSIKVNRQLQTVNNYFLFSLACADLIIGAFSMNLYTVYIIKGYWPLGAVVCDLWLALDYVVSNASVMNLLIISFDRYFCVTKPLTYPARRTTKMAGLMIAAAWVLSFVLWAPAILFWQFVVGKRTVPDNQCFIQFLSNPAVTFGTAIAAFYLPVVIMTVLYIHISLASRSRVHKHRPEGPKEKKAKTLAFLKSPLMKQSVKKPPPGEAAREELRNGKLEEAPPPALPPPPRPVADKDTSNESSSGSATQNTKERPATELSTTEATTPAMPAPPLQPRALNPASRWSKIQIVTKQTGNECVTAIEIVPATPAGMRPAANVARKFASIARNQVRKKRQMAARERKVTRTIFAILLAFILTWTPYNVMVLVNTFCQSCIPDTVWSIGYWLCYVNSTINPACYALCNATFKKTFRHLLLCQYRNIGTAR
In words: mAChR M4 cell-based functional assay (calcium mobilization, CHO-K1 hM4-Gqi5 cells). To be noted: for Emax at 30 µM: CHO-K1, % ACh maximum at 30 μM; for EC50: positive allosteric modulator activity, increase in the EC20 acetylcholine response, CHO-K1 hM4-Gqi5 cells, read-out: Human M4 EC50. Put shortly: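 CHO-K1 cells stably expressing human M4 with chimeric Gqi5, loaded with Fluo-4 AM; compounds given as 11-point 1:3 curves and calcium flux read on FDSS at 1 Hz. Acetylcholine EC20 added at 144 s, EC80 at 230 s; agonist, PAM (EC20 potentiation) and antagonist (EC80 inhibition) EC50/Emax from four-parameter fits.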

Structures are written as SMILES. A value given as a limit tells only on which side of the number the result lay.

`Cc1cc(C(=O)N2CC(c3cccnc3)C2)nnc1N1CCc2ncc(-n3cccn3)cc2C1` [Example 535, (6-(3-(1H-pyrazol-1-yl)-7,8-dihydro-1,6-naphthyridin-6(5H)-yl)-5-methylpyridazin-3-yl)(3-(pyridin-3-yl)azetidin-1-yl)methanone]: the EC50 is 85 nM. The maximal effect (Emax) at 30 µM (human M4) amounted to 84%. In the case of `Cc1cnc2c(c1)CN(c1nnc(C(=O)NCc3csc4ccccc34)c(C)c1C)CC2` [Example 470, N-(benzo[b]thiophen-3-ylmethyl)-4,5-dimethyl-6-(3-methyl-7,8-dihydro-1,6-naphthyridin-6(5H)-yl)pyridazine-3-carboxamide], the 50% effective concentration (EC50) was determined as 278 nM. Besides, the Emax at 30 µM (human M4) worked out at 102%. Consider `Cc1nc(C)c(-c2cnc3c(c2)CN(c2nnc(C#N)c(C)c2C)CC3)s1` [compound 294, 6-(3-(2,4-dimethylthiazol-5-yl)-7,8-dihydro-1,6-naphthyridin-6(5H)-yl)-4,5-dimethylpyridazine-3-carbonitrile], for which the EC50 was determined as 292 nM. Where the note is “human M4”, the Emax at 30 µM turned out to be 83%. In the same order, the values of `Cc1c(C#N)nnc(N2CCc3ncc(N4CCO[C@H](c5ccccc5)C4)cc3C2)c1C` [Example 376, (R)-4,5-dimethyl-6-(3-(2-phenylmorpholino)-7,8-dihydro-1,6-naphthyridin-6(5H)-yl)pyridazine-3-carbonitrile] are 1380 nM and 90%. In the case of `Cc1cc(C(=O)NCC2CCCCO2)cnc1N1CCc2ncccc2C1` (stereo not shown) [compound 161, 6-(7,8-dihydro-5H-1,6-naphthyridin-6-yl)-5-methyl-N-(tetrahydropyran-2-ylmethyl)pyridine-3-carboxamide], the 50% effective concentration (EC50) was at least 10000 nM. The Emax at 30 µM (human M4) is 58%. `Cc1nc(C)c(C)c(N2CCc3ncc(C(F)(F)F)cc3C2)n1` [compound 235, 3-(trifluoromethyl)-6-(2,5,6-trimethylpyrimidin-4-yl)-5,6,7,8-tetrahydro-1,6-naphthyridine]: the EC50 came to 350 nM. The Emax at 30 µM (human M4) was found to be 87%. As to `Cc1cc(C#N)nnc1N1CCc2ncc(-c3ccnn3C)cc2C1` [Example 394, 5-methyl-6-(3-(1-methyl-1H-pyrazol-5-yl)-7,8-dihydro-1,6-naphthyridin-6(5H)-yl)pyridazine-3-carbonitrile], the EC50 turned out to be 1080 nM. In addition, under “human M4”, the Emax at 30 µM was 86%. For `Cc1nc2c(c(N3CCc4ncc(C(F)(F)F)cc4C3)n1)CCC2` [compound 267, 6-(2-methyl-6,7-dihydro-5H-cyclopenta[d]pyrimidin-4-yl)-3-(trifluoromethyl)-5,6,7,8-tetrahydro-1,6-naphthyridine], the concentration for a half-maximal effect (EC50) is 1030 nM. Consider `Cc1nc(Cl)c(C)c(N2Cc3cc(N)cnc3C(C)(C)C2)n1` [compound 219, 6-(6-chloro-2,5-dimethylpyrimidin-4-yl)-8,8-dimethyl-5,6,7,8-tetrahydro-1,6-naphthyridin-3-amine], for which the EC50 was at least 10000 nM. The Emax (CHO-K1) turned out to be 37%.

As for `Cc1nn(C)cc1-c1cnc2c(c1)CN(c1nc(C(F)(F)F)nc(Cl)c1C)CC2` [compound 245, 6-(6-chloro-5-methyl-2-(trifluoromethyl)pyrimidin-4-yl)-3-(1,3-dimethyl-1/-pyrazol-4-yl)-5,6,7,8-tetrahydro-1,6-naphthyridine], the EC50 is 641 nM. Further, the Emax at 30 µM (human M4) was 56%.

In the case of `COc1cnc(Cl)c(-c2cnc3c(c2)CN(c2nnc(C#N)c(C)c2C)CC3)c1` [compound 52, 6-[3-(2-chloro-5-methoxy-3-pyridyl)-7,8-dihydro-5H-1,6-naphthyridin-6-yl]-4,5-dimethyl-pyridazine-3-carbonitrile], the EC50 worked out at 305 nM. The Emax at 30 µM (human M4) was found to be 64%. In the same order, the values of `FC(F)(F)c1cnc2c(c1)CN(c1nc(Cl)nc3c1CCCC3)CC2` [compound 264, 2-chloro-4-(3-(trifluoromethyl)-7,8-dihydro-1,6-naphthyridin-6(5H)-yl)-5,6,7,8-tetrahydroquinazoline] are 1620 nM and 66%. As to `Cc1cc(C#N)cnc1N1CCc2ncc(NCC3CCCO3)cc2C1` (stereo not shown) [Example 9], the EC50 was found to be 785 nM. The maximum response (Emax) at 30 µM (human M4) was 76%. The corresponding values for `Cc1c(C#N)nnc(N2CCc3ncc(-c4cccnc4F)cc3C2)c1C` [compound 54, 6-[3-(2-fluoro-3-pyridyl)-7,8-dihydro-5H-1,6-naphthyridin-6-yl]-4,5-dimethyl-pyridazine-3-carbonitrile] are 391 nM and 70%.

For `Cc1cc(C#N)cnc1N1CCc2ncc(N3CCCn4nc(C(C)(C)C)cc43)cc2C1` [Example 414, 6-(3-(2-(tert-butyl)-6,7-dihydropyrazolo[1,5-a]pyrimidin-4(5H)-yl)-7,8-dihydro-1,6-naphthyridin-6(5H)-yl)-5-methylnicotinonitrile], the EC50 is 739 nM. Also, where the note is “human M4”, the Emax at 30 µM was found to be 65%.

Consider `Cc1cc(C#N)cnc1N1CCc2ncc(-c3c(C)noc3C)cc2C1` [compound 109, 6-[3-(3,5-dimethylisoxazol-4-yl)-7,8-dihydro-5H-1,6-naphthyridin-6-yl]-5-methyl-pyridine-3-carbonitrile], for which the EC50 is 167 nM. The Emax at 30 µM (human M4) worked out at 90%. Take `Clc1nc2c(c(N3CCc4ncc(N5CCCn6nccc65)cc4C3)n1)COC2` [compound 282, 2-chloro-4-(3-(6,7-dihydropyrazolo[1,5-a]pyrimidin-4(5H)-yl)-7,8-dihydro-1,6-naphthyridin-6(5H)-yl)-5,7-dihydrofuro[3,4-d]pyrimidine]: the EC50 is 302 nM. With `Cc1cc(C#N)cnc1N1CCc2ncc(-n3ccnc3)cc2C1` [Example 343, 6-(3-(1H-imidazol-1-yl)-7,8-dihydro-1,6-naphthyridin-6(5H)-yl)-5-methylnicotinonitrile], the 50% effective concentration (EC50) came out at 226 nM. In addition, the Emax at 30 µM (human M4) stood at 97%. The corresponding values for `Cc1cc(C(=O)N2CCC2)nnc1N1CCc2ncc(N3CCO[C@H](C)C3)cc2C1` [Example 537, (R)-azetidin-1-yl(5-methyl-6-(3-(2-methylmorpholino)-7,8-dihydro-1,6-naphthyridin-6(5H)-yl)pyridazin-3-yl)methanone] are 131 nM and 96%. In the same order, the values of `Cc1cc(C(=O)N2CC(F)C2)nnc1N1CCc2ncc(-c3ccnn3C)cc2C1` [Example 563, (3-fluoroazetidin-1-yl)(5-methyl-6-(3-(1-methyl-1H-pyrazol-5-yl)-7,8-dihydro-1,6-naphthyridin-6(5H)-yl)pyridazin-3-yl)methanone] are 74 nM and 69%. The corresponding values for `Cc1c(C#N)nnc(N2CCc3ncc(Nc4cccnc4F)cc3C2)c1C` [compound 119, 6-[3-[(2-fluoro-3-pyridyl)amino]-7,8-dihydro-5H-1,6-naphthyridin-6-yl]-4,5-dimethyl-pyridazine-3-carbonitrile] are 191 nM and 82%. As to `Cc1c(C#N)nnc(N2CCc3ncc(Nc4ccncc4F)cc3C2)c1C` [Example 613, 6-(3-((3-fluoropyridin-4-yl)amino)-7,8-dihydro-1,6-naphthyridin-6(5H)-yl)-4,5-dimethylpyridazine-3-carbonitrile], the EC50 was 3 nM. Further, where the note is “human M4”, the Emax at 30 µM turned out to be 97%. For the compound `Cc1cc(C#N)cnc1N1CCc2ncc(-c3ccnc(F)c3)cc2C1` [Example 340, 6-(3-(2-fluoropyridin-4-yl)-7,8-dihydro-1,6-naphthyridin-6(5)-yl)-5-methylnicotinonitrile], the EC50 worked out at 7550 nM. Further, the Emax at 30 µM (human M4) was 81%. The corresponding values for `Cc1cc(C#N)cnc1N1CCc2ncc(N3CCC(C)n4nccc43)cc2C1` (stereo not shown) [Example 386, 5-methyl-6-(3-(7-methyl-6,7-dihydropyrazolo[1,5-a]pyrimidin-4(5H)-yl)-7,8-dihydro-1,6-naphthyridin-6(5H)-yl)nicotinonitrile] are 76 nM and 103%. With `Cc1cc(C#N)cnc1N1Cc2cc(N3CCOCC3)cnc2C(C)C1` (single isomer, unassigned) [Example 408, 5-methyl-6-(8-methyl-3-morpholino-7,8-dihydro-1,6-naphthyridin-6(5H)-yl)nicotinonitrile], the EC50 came to 685 nM. In addition, the Emax (% ACh maximum at 30 μM, human M4) is 65%.

Turning to `Cc1nc(Cl)c(C)c(N2CCc3ncc(-c4cncs4)cc3C2)n1` [compound 94, 5-[6-(6-chloro-2,5-dimethyl-pyrimidin-4-yl)-7,8-dihydro-5H-1,6-naphthyridin-3-yl]thiazole], the 50% effective concentration (EC50) came to 96.9 nM. Further, the Emax at 30 µM (human M4) was found to be 91%. As to `Cc1cc(C(=O)NCc2nc3ccccc3s2)cnc1N1CCc2ncc(-c3cn(C)nc3C)cc2C1` [Example 453, N-(benzo[d]thiazol-2-ylmethyl)-6-(3-(1,3-dimethyl-1H-pyrazol-4-yl)-7,8-dihydro-1,6-naphthyridin-6(5H)-yl)-5-methylnicotinamide], the EC50 worked out at 828 nM. The maximal effect (Emax) at 30 µM (human M4) worked out at 92%.
